From patent US11780826B2 (Amgen Inc., priority 2017, dated 2023)

What follows are molecules tested on Bovine cardiac myofibrils (assay: In vitro model of dose-dependent myofibril ATPase modulation (AC1.4, pyruvate kinase/lactate dehydrogenase-coupled ATPase assay at pCa25)). Conditions: concentration at which ATPase activity was 1.4-fold higher than the bottom of the dose curve, mean of a minimum of two independent tests.
Type: biochemical
Outline: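 ATP turnover tracked as NADH absorbance loss at 340 nm, coupled via pyruvate kinase/lactate dehydrogenase, with 1 mM ATP, 2 mM MgCl2 and 12 mM K-PIPES at pH 6.80 (22° C) under EGTA/CaCl2 calcium buffering. Substrate was detergent-treated bovine cardiac myofibrils; 4-parameter curve fit, AC1.4 averaged over at least two runs.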

`N#CC1CN(S(=O)(=O)N2CCC[C@H](C(=O)N3CCC[C@@H]3C(=O)NCc3ccc(C(F)(F)F)nc3)C2)C1` [Example 410, 1-(((3S)-1-((3-cyano-1-azetidinyl)sulfonyl)-3-piperidinyl)carbonyl)-N-((6-(trifluoromethyl)-3-pyridinyl)methyl)-D-prolinamide] and `N#CC1CN(S(=O)(=O)N2CCC[C@H](C(=O)N3CCC[C@@H]3C(=O)NCc3ccc(F)cc3)C2)C1` [Example 437, 1-(((3S)-1-((3-cyano-1-azetidinyl)sulfonyl)-3-piperidinyl)carbonyl)-N-(4-fluorobenzyl)-D-prolinamide] are within 1.5-fold of each other in AC1.4: 1.4853 µM for the first, 1.7085 µM for the second.

`CC(C)(C#N)c1cccc(C(=O)N2[C@@H](C(=O)N[C@@H](c3ccc(C(F)(F)F)cc3F)C3COC3)C[C@H]3C[C@H]32)c1` [Example 412, (1R,3R,5R)-2-(3-(2-cyano-2-propanyl)benzoyl)-N-((R)-(2-fluoro-4-(trifluoromethyl)phenyl)(3-oxetanyl)methyl)-2-azabicyclo[3.1.0]hexane-3-carboxamide] and `CS(=O)(=O)N1CC(F)(c2cccc(C(=O)N3[C@@H](C(=O)N[C@@H](c4ccc(C(F)(F)F)cc4F)C4CC4)C[C@H]4C[C@H]43)c2)C1` [Example 422, (1R,3R,5R)-N-((R)-cyclopropyl(2-fluoro-4-(trifluoromethyl)phenyl)methyl)-2-(3-(3-fluoro-1-(methylsulfonyl)-3-azetidinyl)benzoyl)-2-azabicyclo[3.1.0]hexane-3-carboxamide] are within 1.5-fold of each other in AC1.4: 1.495 µM for the first, 1.5655 µM for the second.

`N#CC1CN(S(=O)(=O)N2CCC[C@H](C(=O)N3CCC[C@@H]3C(=O)NCc3ccc(CF)cc3)C2)C1` [Example 413, 1-(((3S)-1-((3-cyano-1-azetidinyl)sulfonyl)-3-piperidinyl)carbonyl)-N-(4-(fluoromethyl)benzyl)-D-prolinamide] and `N#CC1CN(S(=O)(=O)N2CCC[C@H](C(=O)N3CCC[C@@H]3C(=O)NCc3ccc(OC(F)F)cc3)C2)C1` [Example 435, 1-(((3S)-1-((3-cyano-1-azetidinyl)sulfonyl)-3-piperidinyl)carbonyl)-N-(4-(difluoromethoxy)benzyl)-D-prolinamide] are within 1.5-fold of each other in AC1.4: 1.511 µM for the first, 1.681 µM for the second.

`CC(C)c1cccc(C(=O)N2CCC[C@@H]2C(=O)N[C@@H](c2ccc(C(F)(F)F)cc2F)C2CC2)c1` [Example 414, N-((R)-cyclopropyl(2-fluoro-4-(trifluoromethyl)phenyl)methyl)-1-(3-(2-propanyl)benzoyl)-D-prolinamide] and `CS(=O)(=O)c1cccc(C(=O)N2CCC[C@@H]2C(=O)N[C@@H](c2ccc(Cl)c(F)c2)C2CC2)c1` [Example 426, N-((R)-(4-chloro-3-fluorophenyl)(cyclopropyl)methyl)-1-(3-(methylsulfonyl)benzoyl)-D-prolinamide] are within 1.5-fold of each other in AC1.4: 1.515 µM for the first, 1.4595 µM for the second.

`C[C@H](C(=O)N[C@H](C)c1ccc(C(F)(F)F)cc1)N(C)C(=O)[C@H]1CCCN(S(=O)(=O)N2CC(C#N)C2)C1` [Example 415, (3S)-1-((3-cyano-1-azetidinyl)sulfonyl)-N-methyl-N-((1R)-1-methyl-2-oxo-2-(((1R)-1-(4-(trifluoromethyl)phenyl)ethyl)amino)ethyl)-3-piperidinecarboxamide] and `C[C@H](NC(=O)[C@H]1CCCN1C(=O)[C@H]1CCCN(S(=O)(=O)N2CC(C#N)C2)C1)c1ccc(C(F)(F)F)cc1` [Example 431, 1-(((3S)-1-((3-cyano-1-azetidinyl)sulfonyl)-3-piperidinyl)carbonyl)-N-((1S)-1-(4-(trifluoromethyl)phenyl)ethyl)-D-prolinamide] are within 1.5-fold of each other in AC1.4: 1.522 µM for the first, 1.6305 µM for the second.

`CS(=O)(=O)c1cc(C(=O)N2C[C@@H](F)C[C@@H]2C(=O)N[C@@H](c2cc(F)c(C(F)(F)F)cc2F)C2CC2)ccn1` [Example 416, (4S)-N-((R)-cyclopropyl(2,5-difluoro-4-(trifluoromethyl)phenyl)methyl)-4-fluoro-1-((2-(methylsulfonyl)-4-pyridinyl)carbonyl)-D-prolinamide] and `CS(=O)(=O)c1cncc(C(=O)N2C[C@@H](F)C[C@@H]2C(=O)N[C@@H](c2cc(F)c(C(F)(F)F)cc2F)C2CC2)c1` [Example 430, (4S)-N-((R)-cyclopropyl(2,5-difluoro-4-(trifluoromethyl)phenyl)methyl)-4-fluoro-1-((5-(methylsulfonyl)-3-pyridinyl)carbonyl)-D-prolinamide] are within 1.5-fold of each other in AC1.4: 1.528 µM for the first, 1.474 µM for the second.

`COc1cc(C)ccc1CNC(=O)[C@H]1CCCN1C(=O)[C@H]1CCCN(S(=O)(=O)N2CC(C#N)C2)C1` [Example 417, 1-(((3S)-1-((3-cyano-1-azetidinyl)sulfonyl)-3-piperidinyl)carbonyl)-N-(2-methoxy-4-methylbenzyl)-D-prolinamide] and `N#CC1CN(S(=O)(=O)N2CCC[C@H](C(=O)N3CCC[C@@H]3C(=O)NCc3cc(F)ccc3Cl)C2)C1` [Example 440, N-(2-chloro-5-fluorobenzyl)-1-(((3S)-1-((3-cyano-1-azetidinyl)sulfonyl)-3-piperidinyl)carbonyl)-D-prolinamide] are within 1.5-fold of each other in AC1.4: 1.53 µM for the first, 1.7235 µM for the second.

`N#CC1CN(S(=O)(=O)N2CCC[C@H](C(=O)N3CCC[C@@H]3C(=O)NCc3cccc(F)c3Cl)C2)C1` [Example 418, N-(2-chloro-3-fluorobenzyl)-1-(((3S)-1-((3-cyano-1-azetidinyl)sulfonyl)-3-piperidinyl)carbonyl)-D-prolinamide] and `N#CC1CN(S(=O)(=O)N2CCC[C@H](C(=O)N3CCC[C@@H]3C(=O)NCc3cccc(Cl)c3)C2)C1` [Example 438, N-(3-chlorobenzyl)-1-(((3S)-1-((3-cyano-1-azetidinyl)sulfonyl)-3-piperidinyl)carbonyl)-D-prolinamide] are within 1.5-fold of each other in AC1.4: 1.5305 µM for the first, 1.712 µM for the second.

`C[C@H](C(=O)N[C@H](C)c1ccc(Cl)cc1F)N(C)C(=O)[C@@H]1CN(S(=O)(=O)N2CC(C#N)C2)CCO1` [Example 419, (2S)-N-((2R)-1-(((1R)-1-(4-chloro-2-fluorophenyl)ethyl)amino)-l-oxo-2-propanyl)-4-((3-cyano-1-azetidinyl)sulfonyl)-N-methyl-2-morpholinecarboxamide] and `Cc1cc(CNC(=O)[C@H]2CCCN2C(=O)[C@H]2CCCN(S(=O)(=O)N3CC(C#N)C3)C2)ccc1F` [Example 439, 1-(((3S)-1-((3-cyano-1-azetidinyl)sulfonyl)-3-piperidinyl)carbonyl)-N-(4-fluoro-3-methylbenzyl)-D-prolinamide] are within 1.5-fold of each other in AC1.4: 1.542 µM for the first, 1.7125 µM for the second.

`N#C[C@H]1C[C@H](S(=O)(=O)c2cccc(C(=O)N3CCCC[C@@H]3C(=O)NCc3ccc(Cl)nc3)c2)C1` [Example 420, (2R)-N-((6-chloro-3-pyridinyl)methyl)-1-((3-((trans-3-cyanocyclobutyl)sulfonyl)phenyl)carbonyl)-2-piperidinecarboxamide] and `C[C@@H](NC(=O)[C@H]1CCCN1C(=O)c1cccc(S(=O)(=O)N2CC3(CC3)C2)c1)c1ccc(C(F)(F)F)cc1` [Example 434] are within 1.5-fold of each other in AC1.4: 1.5455 µM for the first, 1.66 µM for the second.

`CS(=O)(=O)c1cc(C(=O)N2CCC[C@@H]2C(=O)N[C@@H](c2cc(F)c(Cl)cc2F)C2CC2)ccn1` [Example 421, N-((R)-(4-chloro-2,5-difluorophenyl)(cyclopropyl)methyl)-1-((2-(methylsulfonyl)-4-pyridinyl)carbonyl)-D-prolinamide] and `C[C@@H](NC(=O)[C@H]1CCCN1C(=O)c1cccc(S(=O)(=O)N(C)C)c1)c1ccc(C(F)(F)F)cc1` [Example 436, 1-(3-(dimethylsulfamoyl)benzoyl)-N-((1R)-1-(4-(trifluoromethyl)phenyl)ethyl)-D-prolinamide] are within 1.5-fold of each other in AC1.4: 1.4335 µM for the first, 1.7 µM for the second.

`N#CC1CN(S(=O)(=O)N2CCC[C@H](C(=O)N3CCC[C@@H]3C(=O)NCc3c(F)cc(F)c(F)c3F)C2)C1` [Example 423, 1-(((3S)-1-((3-cyano-1-azetidinyl)sulfonyl)-3-piperidinyl)carbonyl)-N-(2,3,4,6-tetrafluorobenzyl)-D-prolinamide] and `CS(=O)(=O)C1CN(S(=O)(=O)N2CCC[C@H](C(=O)N3CCC[C@@H]3C(=O)NCc3cc(F)cc(F)c3)C2)C1` [Example 429, N-(3,5-difluorobenzyl)-1-(((3S)-1-((3-(methylsulfonyl)-1-azetidinyl)sulfonyl)-3-piperidinyl)carbonyl)-D-prolinamide] are within 1.5-fold of each other in AC1.4: 1.5735 µM for the first, 1.6075 µM for the second.

`O=C(NCc1ccc(C(F)(F)F)cc1)[C@H]1CCCN1C(=O)[C@H]1CCCN(S(=O)(=O)N2CC(Oc3ccc(Cl)cc3)C2)C1` [Example 424, 1-(((3S)-1-((3-(4-chlorophenoxy)-1-azetidinyl)sulfonyl)-3-piperidinyl)carbonyl)-N-(4-(trifluoromethyl)benzyl)-D-prolinamide] and `NC(=O)[C@H]1C[C@@H](S(=O)(=O)N2CCC[C@H](C(=O)N3CCC[C@@H]3C(=O)NCc3ccc(C(F)(F)F)cc3)C2)C1` [Example 425, 1-(((3S)-1-((cis-3-carbamoylcyclobutyl)sulfonyl)-3-piperidinyl)carbonyl)-N-(4-(trifluoromethyl)benzyl)-D-prolinamide] are the same in AC1.4: 1.5805 µM for the first, 1.5805 µM for the second.

`N#CC1CN(S(=O)(=O)N2CCC[C@H](C(=O)N3C[C@@H](F)C[C@@H]3C(=O)NCc3cccc(C(F)(F)F)c3)C2)C1` [Example 427, (4S)-1-(((3S)-1-((3-cyano-1-azetidinyl)sulfonyl)-3-piperidinyl)carbonyl)-4-fluoro-N-(3-(trifluoromethyl)benzyl)-D-prolinamide] and `C[C@@H](NC(=O)[C@H]1CCCN1C(=O)[C@@H]1CN(S(=O)(=O)N2CC(C#N)C2)CCN1)c1ccc(C(F)(F)F)cc1` [Example 428, 1-(((2S)-4-((3-cyano-1-azetidinyl)sulfonyl)-2-piperazinyl)carbonyl)-N-((1R)-1-(4-(trifluoromethyl)phenyl)ethyl)-D-prolinamide] are within 1.5-fold of each other in AC1.4: 1.5865 µM for the first, 1.606 µM for the second.
